Test system: late passage (P14) pancreatic-derived stromal cells
Test: Trichostatin A 24 h time course, gene expression by Real-Time PCR (Example 3)
Type: cell-based, human
Conditions: 2.5 μM
Experimental: Human pancreatic-derived stromal cells were obtained according to the methods described in Example 13. Cells were seeded into a 24-well tissue culture plate at a density of 5000/cm^2 and cultured in DMEM containing 10% fetal bovine serum under standard cell culture conditions until confluent. After the cells reached confluency, 2.5 μM trichostatin A, diluted in DMSO and medium was added to the wells. Parallel cultures were treated with an equivalent concentration of DMSO as a vehicle control. RNA samples were obtained from treated cultures at 30 minutes, 1.5 hours, 3 hours, 6 hours, 12 hours and 24 hours following the addition of trichostatin A or DMSO. Culture medium was removed, the cells were washed with PBS, and RLT lysis buffer with β-mercaptoethanol (Qiagen) was added. RNA was purified using the RNeasy Mini Kit (Qiagen). RNA quantity and quality were determined using a spectrophotometer, and CDNA was made using the iScript cDNA synthesis kit (BioRad).
The expression levels of Sox17, HNF-3 beta, Pdx-1, insulin, and glucagon were determined by Real-Time PCR. Samples of 20 ng cDNA were used in each reaction, which was performed on the Applied Biosystems 7500 according to the methods described in Example 15. Data were analyzed using the accompanying software. Human pancreas cDNA was included as a positive control, and results were normalized against GAPDH expression levels.
Real-time PCR amplifcation and quantitative analysis. Unless otherwise stated, all reagents were purchased from Applied Biosystems. Real-time PCR reactions were performed using the ABI PRISM™ 7500 Sequence Detection System. TAQMAN™ FAST UNIVERSAL PCR MASTER MIX™ (ABI, CA) was used with 20 ng of reverse transcribed RNA in a total reaction volume of 20 μl. Each cDNA sample was run in duplicate to allow correction of pipetting errors. Primers and FAM-labeled TAQMAN™ probes were used at concentrations of 200 nM. The level of expression for each target gene was normalized using the pre-developed Applied Biosystem's human glyceraldehyde-3-phosphate dehydrogenase (GAPDH) endogenous control kit. Primers and probes were designed using either ABI PRISM PRIMER EXPRESS™ software or a pre-developed ABI gene analysis kit. For each gene, either one of the primers or the probe were designed to be exon-boundary spanning. This eliminated the possibility of the primers/probe binding to any genomic DNA present. The primer and probe sets are listed as follows: Pdx-1 (Hs00426216), Insulin (Hs00355773), glucagon (Hs00174967), and FoxA2 (HNF 3-beta) (Hs00232764). The remaining primers were designed using the PRIMERS program (ABI, CA). After an initial 95° C. incubation for 20 sec, samples were cycled 40 times in two stages: a denaturation step at 95° C. for 3 sec, followed by an annealing/extension step at 60° C. for 30 sec.
For each primer/probe set, a cycle time value was determined as the cycle number at which the fluorescence intensity of the PCR reaction reached a specific value in the middle of the exponential region of amplification. An increase in expression of a gene corresponded to a decrease in the number of cycles required for the fluorescence intensity to reach this value.

CC(/C=C/C(=O)NO)=C\[C@@H](C)C(=O)c1ccc(N(C)C)cc1 [trichostatin A]
HNF-3 beta gene expression (0.5 h): nd (not detectable at >40 cycles by RT-PCR)
Insulin gene expression (0.5 h): nd (not detectable at >40 cycles by RT-PCR)
PDX-1 gene expression (0.5 h): nd (not detectable at >40 cycles by RT-PCR)
Sox17 gene expression (0.5 h): + (detectable between 35 and 40 cycles by RT-PCR)
glucagon gene expression (0.5 h): nd (not detectable at >40 cycles by RT-PCR)
HNF-3 beta gene expression (1.5 h): nd (not detectable at >40 cycles by RT-PCR)
Insulin gene expression (1.5 h): nd (not detectable at >40 cycles by RT-PCR)
PDX-1 gene expression (1.5 h): nd (not detectable at >40 cycles by RT-PCR)
Sox17 gene expression (1.5 h): nd (not detectable at >40 cycles by RT-PCR)
glucagon gene expression (1.5 h): nd (not detectable at >40 cycles by RT-PCR)
HNF-3 beta gene expression (3 h): nd (not detectable at >40 cycles by RT-PCR)
Insulin gene expression (3 h): nd (not detectable at >40 cycles by RT-PCR)
PDX-1 gene expression (3 h): nd (not detectable at >40 cycles by RT-PCR)
Sox17 gene expression (3 h): + (detectable between 35 and 40 cycles by RT-PCR)
glucagon gene expression (3 h): nd (not detectable at >40 cycles by RT-PCR)
Sox-17 RT-PCR detection cycle (3 hours): > 35 cycles
HNF-3 beta gene expression (6 h): + (detectable between 35 and 40 cycles by RT-PCR)
Insulin gene expression (6 h): nd (not detectable at >40 cycles by RT-PCR)
PDX-1 gene expression (6 h): nd (not detectable at >40 cycles by RT-PCR)
Sox17 gene expression (6 h): + (detectable between 35 and 40 cycles by RT-PCR)
glucagon gene expression (6 h): nd (not detectable at >40 cycles by RT-PCR)
HNF-3 beta RT-PCR detection cycle (6 hours): > 35 cycles
HNF-3 beta gene expression (12 h): + (detectable between 35 and 40 cycles by RT-PCR)
Insulin gene expression (12 h): nd (not detectable at >40 cycles by RT-PCR)
PDX-1 gene expression (12 h): + (detectable between 35 and 40 cycles by RT-PCR)
Sox17 gene expression (12 h): + (detectable between 35 and 40 cycles by RT-PCR)
glucagon gene expression (12 h): nd (not detectable at >40 cycles by RT-PCR)
Pdx-1 RT-PCR detection cycle (12 hours): > 35 cycles
HNF-3 beta gene expression (24 h): +++ (detectable at less than 35 cycles by RT-PCR with std error less than 0.9)
Insulin gene expression (24 h): nd (not detectable at >40 cycles by RT-PCR)
PDX-1 gene expression (24 h): +++ (detectable at less than 35 cycles by RT-PCR with std error less than 0.9)
Sox17 gene expression (24 h): +++ (detectable at less than 35 cycles by RT-PCR with std error less than 0.9)
glucagon gene expression (24 h): + (detectable between 35 and 40 cycles by RT-PCR)
HNF-3 beta RT-PCR detection cycle (24 hours): < 35 cycles
HNF-3 beta gene expression relative to human pancreas (24 hours): ~0.075 % of human pancreas
Pdx-1 RT-PCR detection cycle (24 hours): < 35 cycles
Pdx-1 gene expression relative to human pancreas (24 hours): ~0.2 % of human pancreas levels
Sox-17 RT-PCR detection cycle (24 hours): < 35 cycles
Sox-17 gene expression relative to human pancreas (24 hours): ~3 % of human pancreas levels
glucagon RT-PCR detection cycle (24 hours): 35-40 cycles
